Measured values from patent US20250381165A1, “Method of Use for Benzofuran Compounds” (Tampa Bay Research Institute, Inc., priority 2024, published 2025).

Key:
[1] = test system: MHC class I H-2Kb on IMG cells; experiment: Surface MHC class I H-2Kb on IMG cells (AF6-88.5.5.3 flow cytometry); type: cell-based, murine; details: 25 μg/mL
Procedure: By using an MHC class I H-2K^b specific antibody, a relative comparison of the surface MHC class I was measured before and after BzFβ treatment of DC2.4 and IMG cells. […] Cells were centrifuged and washed using cold FACS buffer (DPBS with 5% FBS, 2 mM EDTA, 0.1% sodium azide). Cells were blocked with Fc block (bioLegend™; cat. no. 101320) for 10 min to 15 min to inhibit non-specific binding, followed by staining with fluorophore-conjugated antibodies; one set of cells was stained with the PE-labeled MHC/SIINFEKL specific antibody (clone 25-D1.16, Invitrogen™, Thermo Fisher Scientific Inc., Waltham, MA; cat. no. 12-5743-82), and the other set was stained with the PE-labeled MHC class I H-2Kb specific antibody (AF6-88.5.5.3,Invitrogen™, Thermo Fisher Scientific Inc., Waltham, MA; cat. no. 12-5958-82) PE-labeled MHC class I H-2kb specific (clone AF6-88.5.5.3; Invitrogen™, Thermo Fisher Scientific Inc., Waltham, MA; cat. no. 12-5958-82), for 30 min at 4° C. After washing, the cells were subjected to flow cytometric analysis with the Attune NxT Flow Cytometer (Invitrogen). Cells were gated based on live single-cell populations and positives were assessed using isotype controls and fluor-minus-one analysis when needed. Data were analyzed using the Attune NxT software or FlowJo versions 10.7 and 10.8.

[2] = test system: CD45+/MHC II/CD11c+ splenocytes; experiment: In vivo SIINFEKL loading, flow cytometry of splenocytes; set-up: species or system C57BL/6NCrl mice; details: CD45+/MHC II/CD11c+ population
Procedure: Since the oral route of drug delivery is preferred, various doses of BzFβ (1, 2, 4 mg) were administered by oral gavage, immediately following an iv injection of 50 μg SIINFEKL peptide. One-hour post-treatment the blood and spleens from each mouse was collected. Blood samples were processed as described above. Spleens were collected in 4 mL of Hanks Balanced Salt Solution (HBSS) and converted to a single cell suspension using sterile pouches and a Steward Stomacher 80 Biomaster Blender (Fisher Scientific, cat. no. 14-285-27). The resulting cell suspension was pelleted and suspended in 4 mL freshly prepared red blood cell lysis buffer (150 mM NH4Cl, 10 mM NaHCO3, 0.1 mM EDTA in sterile distilled H2O) for 1-3 minutes. The splenocytes were pelleted and filtered through […] EASY strainer filters (USA Scientific, cat. no. 5654-2070). The cell count was determined using the MUSE cell viability kit (MCH600103) and MUSE Cell Analyzer (Luminex Corp, Austin TX).
For peptide loading, splenocytes were prepared to 5×10^5/mL in cRPMI, then 100 μL of cells was added to wells of clear round-bottom 96 well tissue culture plates. […] Cells were gated based on live single-cell populations and positives were assessed using isotype controls and fluor-minus-one analysis when needed. Data were analyzed using the Attune NxT software or FlowJo versions 10.7 and 10.8.

[3] = test system: HEK293T; experiment: CellTiter-Glo cell viability, HEK293T; type: cell-based; details: Homo sapiens, HEK-293T
Procedure: BzFβ was then examined for its effect on the viability of several murine and human cell lines and primary murine splenocytes. The cytotoxicity of BzFβ was assessed using the CellTiter-Glo […] assay system according to manufacturer's instructions to determine BzFβ's effect on the viability of several murine and human cell lines and primary murine splenocytes.
DC2.4 cell line (Dr. Kenneth Rock, University of Massachusetts), RAW 264.7 cell line (American Type Culture Collection (ATCC), Manassas, VA; TIB 71), and IMG cell line (Millipore™, Merck KGaA, Burlington, MA; cat. no. SC-C134) were each cultured in complete Dulbecco's Modified Eagle Medium (cDMEM) containing […] glucose (Gibco™, Thermo Fisher Scientific Inc., Waltham, MA; cat. no. 10566-016) and supplemented with GlutaMAX, 50 U/mL penicillin and 50 µg/mL streptomycin (Gibco™; cat. no. 15070-063) and 10% heat inactivated fetal bovine serum (FBS) (R&D Systems, Inc., Minneapolis, MN; cat. no. […]
The cytotoxicity of BzFβ was assessed using the CellTiter-Glo cell […] viability assay system […] cat. no. […] CellTiter-Glo was added 1:1 in the media and the level of chemiluminescence was measured using luminescence at wavelengths of 200 nm to 700 nm through a photomultiplier on BioTek's Synergy HTX multimode microplate reader. […]

O=C(O)/C=C/c1ccc2occc2c1 [BzFβ, (2E)-3-(1-benzofuran-5-yl)prop-2-enoic acid]
overall surface expression (MFI) of MHC class I ([1]; 1-4 h): no significant effect
overall surface expression (MFI) of MHC class I ([1]; 24 h): significant increase
cells co-expressing MHCI bound SIINFEKL [2]: significantly more of these cells
IC50 [3]: 432 µM
